Legend:
[1] = test system: 5HT2-receptor; settings: statement in the background, no value; cited from earlier work
[2] = studies of male and female patients suffering from sexual dysfunction; format: in vivo, human patients
From the text: Accordingly, the instant invention relates to the use of flibanserin, optionally in form of the pharmacologically acceptable acid addition salts thereof for the preparation of a medicament for the treatment of disorders of sexual desire.

[3] = molecular target: T1, 5-HT1A receptor (Homo sapiens, UniProt P08908); settings: statement in the background, no value; cited from earlier work
T1 sequence (P08908 1-422): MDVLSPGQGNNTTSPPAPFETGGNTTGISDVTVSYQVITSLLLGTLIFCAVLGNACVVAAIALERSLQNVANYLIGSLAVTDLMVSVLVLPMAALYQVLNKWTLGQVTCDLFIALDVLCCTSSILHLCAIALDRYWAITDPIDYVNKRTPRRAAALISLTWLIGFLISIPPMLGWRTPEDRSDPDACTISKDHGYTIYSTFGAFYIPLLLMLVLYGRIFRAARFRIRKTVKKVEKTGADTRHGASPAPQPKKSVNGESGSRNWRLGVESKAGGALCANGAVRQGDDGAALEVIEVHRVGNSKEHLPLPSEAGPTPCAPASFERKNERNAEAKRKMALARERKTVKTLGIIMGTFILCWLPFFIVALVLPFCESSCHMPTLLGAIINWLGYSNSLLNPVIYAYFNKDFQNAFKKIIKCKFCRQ

Compound: O=c1[nH]c2ccccc2n1CCN1CCN(c2cccc(C(F)(F)F)c2)CC1 [Flibanserin, 1-[2-(4-(3-trifluoromethyl-phenyl)piperazin-1-yl)ethyl]-2,3-dihydro-1H-benzimidazol-2-one]
- affinity for the 5HT2-receptor [1]: shows affinity
- sexual desire enhancing properties [2]: displays sexual desire enhancing properties
- affinity for the 5-HT1A receptor [3]: shows affinity

From patent publication US10307420B2, “Treating sexual desire disorders with flibanserin” (Sprout Pharmaceuticals, Inc., priority 2001, dated 2019)
